Experimental data published in the supplement of paper PMC10307832.

compound: NCC(=O)Nc1ccc(-n2nc(C(F)(F)F)cc2-c2ccc3c(ccc4ccccc43)c2)cc1 + Cc1nc(Nc2ncc(C(=O)Nc3c(C)cccc3Cl)s2)cc(N2CCN(CCO)CC2)n1 [Dasatinib] (partner 0.075 µM); experiment: relative viability (nuclei count vs DMSO), 5 days (fraction); higher = more cells survive; details: first compound 2 µM
Summary of the method: (§1)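 Nuclei were stained with Hoechst during a one-step fixation (final 0.05% Triton X-100, 1% formaldehyde, 1 ug/ml Hoechst) carried out 5 days after dosing, then counted on 4× images. The cells, lung cancer lines in 1536-well plates, had been dosed by pin tool the day after seeding with one drug alone or a fixed anchor-drug dose plus five library-drug doses (not always all listed) in √10 steps. Relative viability is the nuclei count in treated wells divided by that in vehicle wells, and each value is the median of duplicate plates.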

For ABC-1, the relative viability was 0.49.

compound: NCC(=O)Nc1ccc(-n2nc(C(F)(F)F)cc2-c2ccc3c(ccc4ccccc43)c2)cc1 + O=C(CCCCCCC(=O)Nc1ccccc1)NO [Vorinostat] (partner 1 µM); experiment: as above; details: first compound 0.02 µM
Summary of the method: as §1

First: NCI-H2342
Second: NCI-H727
The relative viability of the first is lower: 0.871 for the first, 1.28 for the second.

Compared with NCI-H1650, NCI-H1993 is higher in relative viability: 0.71 for the first, 0.798 for the second.

Going from SW 1573 to NCI-H838, the relative viability rises from 0.647 to 0.772.

First: LCLC-103H
Second: NCI-H520
The relative viability of the first is higher: 0.674 for the first, 0.631 for the second.

Going from NCI-H2126 to EMC-BAC-2, the relative viability falls from 0.78 to 0.454.

Going from NCI-H2085 to HCC-366, the relative viability falls from 0.703 to 0.254.

First: NCI-H1666
Second: NCI-H596
The relative viability of the first is higher: 1.03 for the first, 0.636 for the second.

Going from NCI-H1648 to IA-LM, the relative viability rises from 0.416 to 0.989.

Compared with HCC-44, ABC-1 is lower in relative viability: 1.17 for the first, 0.917 for the second.

same assay, conditions: first compound 0.06325 µM

First: NCI-H2342
Second: NCI-H727
The relative viability of the first is lower: 0.817 for the first, 0.908 for the second.

First: NCI-H1650
Second: NCI-H1993
The relative viability of the first is lower: 0.676 for the first, 0.952 for the second.

Compared with SW 1573, NCI-H838 is lower in relative viability: 0.749 for the first, 0.708 for the second.

Going from LCLC-103H to NCI-H520, the relative viability falls from 0.831 to 0.779.

First: NCI-H2126
Second: EMC-BAC-2
The relative viability of the first is higher: 0.858 for the first, 0.511 for the second.

Compared with NCI-H2085, HCC-366 is lower in relative viability: 0.824 for the first, 0.423 for the second.

Going from NCI-H1666 to NCI-H596, the relative viability falls from 1.07 to 0.705.

Compared with NCI-H1648, IA-LM is higher in relative viability: 0.423 for the first, 1.08 for the second.

Going from HCC-44 to ABC-1, the relative viability falls from 1.19 to 1.15.

same assay, conditions: first compound 0.2 µM

Compared with NCI-H2342, NCI-H727 is higher in relative viability: 0.663 for the first, 1.28 for the second.

First: NCI-H1650
Second: NCI-H1993
The relative viability of the first is lower: 0.556 for the first, 0.656 for the second.

Going from SW 1573 to NCI-H838, the relative viability rises from 0.831 to 0.857.

Going from LCLC-103H to NCI-H520, the relative viability rises from 0.818 to 0.873.

Compared with NCI-H2126, EMC-BAC-2 is lower in relative viability: 0.768 for the first, 0.569 for the second.

Going from NCI-H2085 to HCC-366, the relative viability falls from 0.728 to 0.419.

First: NCI-H1666
Second: NCI-H596
The relative viability of the first is higher: 1.13 for the first, 0.706 for the second.

Going from NCI-H1648 to IA-LM, the relative viability rises from 0.762 to 0.981.

HCC-44 showed a relative viability of 1.03.

same assay, conditions: first compound 0.6325 µM

Going from NCI-H2342 to NCI-H727, the relative viability rises from 0.864 to 1.21.

First: NCI-H1650
Second: NCI-H1993
The relative viability of the first is lower: 0.692 for the first, 0.969 for the second.

First: SW 1573
Second: NCI-H838
The relative viability of the first is higher: 0.703 for the first, 0.681 for the second.

LCLC-103H and NCI-H520 are the same in relative viability: 0.77 for the first, 0.77 for the second.

First: NCI-H2126
Second: EMC-BAC-2
The relative viability of the first is higher: 0.756 for the first, 0.514 for the second.

First: NCI-H2085
Second: HCC-366
The relative viability of the first is higher: 0.877 for the first, 0.357 for the second.

Going from NCI-H1666 to NCI-H596, the relative viability falls from 0.938 to 0.731.

First: NCI-H1648
Second: IA-LM
The relative viability of the first is lower: 0.408 for the first, 0.908 for the second.

First: HCC-44
Second: ABC-1
The relative viability of the first is lower: 1.05 for the first, 1.08 for the second.

same assay, conditions: first compound 2 µM

Going from NCI-H2342 to NCI-H727, the relative viability rises from 0.743 to 1.05.

Compared with NCI-H1650, NCI-H1993 is higher in relative viability: 0.559 for the first, 0.862 for the second.

Going from SW 1573 to NCI-H838, the relative viability rises from 0.661 to 0.728.

First: LCLC-103H
Second: NCI-H520
The relative viability of the first is higher: 0.862 for the first, 0.763 for the second.

Going from NCI-H2126 to EMC-BAC-2, the relative viability falls from 0.773 to 0.488.

First: NCI-H2085
Second: HCC-366
The relative viability of the first is higher: 0.849 for the first, 0.435 for the second.

Going from NCI-H1666 to NCI-H596, the relative viability falls from 0.944 to 0.526.

First: NCI-H1648
Second: IA-LM
The relative viability of the first is lower: 0.536 for the first, 0.896 for the second.

First: HCC-44
Second: ABC-1
The relative viability of the first is lower: 1.12 for the first, 1.39 for the second.

compound: C1CSC2=C(C(=O)N1)SC3=C2C=C(C=C3)O [kb NB 142-70] + Nc1nc2[nH]cc(CCc3ccc(C(=O)N[C@@H](CCC(=O)O)C(=O)O)cc3)c2c(=O)[nH]1 [Pemetrexed] (partner 0.2 µM); experiment: as above; details: first compound 0.1 µM
Summary of the method: as §1

Going from NCI-H2342 to NCI-H1650, the relative viability falls from 0.781 to 0.315.

Going from NCI-H1993 to SW 1573, the relative viability rises from 0.562 to 0.81.

Compared with NCI-H838, LCLC-103H is higher in relative viability: 0.257 for the first, 0.447 for the second.

First: NCI-H520
Second: NCI-H2126
The relative viability of the first is higher: 0.765 for the first, 0.666 for the second.

Going from EMC-BAC-2 to NCI-H2085, the relative viability rises from 0.438 to 0.866.

Compared with HCC-366, NCI-H1666 is higher in relative viability: 0.182 for the first, 0.811 for the second.

First: NCI-H596
Second: NCI-H1648
The relative viability of the first is lower: 0.484 for the first, 0.731 for the second.

First: HCC-44
Second: NCI-H1792
The relative viability of the first is lower: 0.554 for the first, 0.862 for the second.

For NCI-H1563, the relative viability was 0.864.

same assay, conditions: first compound 1 µM

First: NCI-H2342
Second: NCI-H1650
The relative viability of the first is higher: 0.774 for the first, 0.419 for the second.

Compared with NCI-H1993, SW 1573 is higher in relative viability: 0.597 for the first, 0.744 for the second.

First: NCI-H838
Second: LCLC-103H
The relative viability of the first is lower: 0.248 for the first, 0.453 for the second.

Compared with NCI-H520, NCI-H2126 is higher in relative viability: 0.667 for the first, 0.702 for the second.

Going from EMC-BAC-2 to NCI-H2085, the relative viability rises from 0.483 to 0.947.

First: HCC-366
Second: NCI-H1666
The relative viability of the first is lower: 0.214 for the first, 0.977 for the second.

Compared with NCI-H596, NCI-H1648 is higher in relative viability: 0.507 for the first, 0.763 for the second.

Compared with HCC-44, NCI-H1792 is higher in relative viability: 0.731 for the first, 0.828 for the second.

NCI-H1563 showed a relative viability of 0.961.

same assay, conditions: first compound 3.162 µM

First: NCI-H2342
Second: NCI-H1650
The relative viability of the first is higher: 0.697 for the first, 0.481 for the second.

Going from NCI-H1993 to SW 1573, the relative viability falls from 0.554 to 0.36.

First: NCI-H838
Second: LCLC-103H
The relative viability of the first is lower: 0.245 for the first, 0.471 for the second.

First: NCI-H520
Second: NCI-H2126
The relative viability of the first is lower: 0.375 for the first, 0.762 for the second.

First: EMC-BAC-2
Second: NCI-H2085
The relative viability of the first is lower: 0.451 for the first, 0.792 for the second.

First: HCC-366
Second: NCI-H1666
The relative viability of the first is lower: 0.34 for the first, 0.897 for the second.

Going from NCI-H596 to NCI-H1648, the relative viability rises from 0.461 to 0.932.

First: HCC-44
Second: NCI-H1792
The relative viability of the first is lower: 0.69 for the first, 1.13 for the second.

With NCI-H1563 the relative viability was 0.774.
